# Measured values taken from ChEMBL document CHEMBL3431459, “Roche carnitine palmitoyltransferase modulator screening data (supplementary data associated with the publication CHEMBL2216752)”.
# Experiments:
# [1] = target: T1, Carnitine O-palmitoyltransferase 1, muscle isoform (Homo sapiens, UniProt Q92523); assay: SUPPLEMENTARY: Inhibition of Carnitine palmitoyltransferase 1, muscle isoform; parameters: species or system Muscle tissue
# T1 sequence (Q92523 whole entry): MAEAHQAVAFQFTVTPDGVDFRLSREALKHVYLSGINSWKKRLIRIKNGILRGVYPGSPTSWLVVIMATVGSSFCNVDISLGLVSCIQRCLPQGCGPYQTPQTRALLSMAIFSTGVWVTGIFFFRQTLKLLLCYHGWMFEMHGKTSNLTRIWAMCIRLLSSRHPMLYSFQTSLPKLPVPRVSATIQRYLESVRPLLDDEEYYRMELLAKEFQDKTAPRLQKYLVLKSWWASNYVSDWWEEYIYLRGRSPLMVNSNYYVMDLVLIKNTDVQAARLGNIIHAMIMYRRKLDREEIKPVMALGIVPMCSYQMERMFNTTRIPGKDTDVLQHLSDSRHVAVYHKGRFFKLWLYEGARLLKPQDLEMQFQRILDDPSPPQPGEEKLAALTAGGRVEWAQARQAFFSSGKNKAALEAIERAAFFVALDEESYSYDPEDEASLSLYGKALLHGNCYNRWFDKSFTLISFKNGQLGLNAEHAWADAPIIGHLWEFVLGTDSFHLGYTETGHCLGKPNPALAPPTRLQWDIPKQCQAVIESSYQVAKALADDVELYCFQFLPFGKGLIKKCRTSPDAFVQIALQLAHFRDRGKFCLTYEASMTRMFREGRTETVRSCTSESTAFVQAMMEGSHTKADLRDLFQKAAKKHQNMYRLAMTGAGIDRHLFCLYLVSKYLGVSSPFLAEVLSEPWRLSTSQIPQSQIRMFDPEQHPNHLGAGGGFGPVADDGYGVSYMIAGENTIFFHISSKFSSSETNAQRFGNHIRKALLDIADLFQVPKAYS
# [2] = target: T2, Carnitine O-palmitoyltransferase 2, mitochondrial (Homo sapiens, UniProt P23786); assay: (§1) SUPPLEMENTARY: Inhibition of Carnitine palmitoyltransferase 2
# T2 sequence (P23786 whole entry): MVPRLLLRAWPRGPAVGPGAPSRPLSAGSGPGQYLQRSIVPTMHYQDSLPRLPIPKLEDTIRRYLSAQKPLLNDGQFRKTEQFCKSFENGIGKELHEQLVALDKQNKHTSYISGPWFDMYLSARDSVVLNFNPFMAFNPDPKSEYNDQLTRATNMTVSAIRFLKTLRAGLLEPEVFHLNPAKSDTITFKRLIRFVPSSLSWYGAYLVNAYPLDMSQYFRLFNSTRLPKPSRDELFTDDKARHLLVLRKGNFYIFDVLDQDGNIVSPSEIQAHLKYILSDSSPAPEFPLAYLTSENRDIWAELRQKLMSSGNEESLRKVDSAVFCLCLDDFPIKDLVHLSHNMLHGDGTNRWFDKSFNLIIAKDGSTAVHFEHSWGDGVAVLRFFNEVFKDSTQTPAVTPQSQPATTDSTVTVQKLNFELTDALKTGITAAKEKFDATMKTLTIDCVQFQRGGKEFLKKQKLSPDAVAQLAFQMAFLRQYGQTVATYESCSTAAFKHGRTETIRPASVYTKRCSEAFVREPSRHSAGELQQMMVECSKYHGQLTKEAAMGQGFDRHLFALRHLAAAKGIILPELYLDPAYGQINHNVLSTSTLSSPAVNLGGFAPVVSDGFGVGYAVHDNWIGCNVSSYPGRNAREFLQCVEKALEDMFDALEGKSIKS
# [3] = target: T3, Carnitine O-palmitoyltransferase 2, mitochondrial (Rattus norvegicus, UniProt P18886); assay: as §1
# T3 sequence (P18886 whole entry): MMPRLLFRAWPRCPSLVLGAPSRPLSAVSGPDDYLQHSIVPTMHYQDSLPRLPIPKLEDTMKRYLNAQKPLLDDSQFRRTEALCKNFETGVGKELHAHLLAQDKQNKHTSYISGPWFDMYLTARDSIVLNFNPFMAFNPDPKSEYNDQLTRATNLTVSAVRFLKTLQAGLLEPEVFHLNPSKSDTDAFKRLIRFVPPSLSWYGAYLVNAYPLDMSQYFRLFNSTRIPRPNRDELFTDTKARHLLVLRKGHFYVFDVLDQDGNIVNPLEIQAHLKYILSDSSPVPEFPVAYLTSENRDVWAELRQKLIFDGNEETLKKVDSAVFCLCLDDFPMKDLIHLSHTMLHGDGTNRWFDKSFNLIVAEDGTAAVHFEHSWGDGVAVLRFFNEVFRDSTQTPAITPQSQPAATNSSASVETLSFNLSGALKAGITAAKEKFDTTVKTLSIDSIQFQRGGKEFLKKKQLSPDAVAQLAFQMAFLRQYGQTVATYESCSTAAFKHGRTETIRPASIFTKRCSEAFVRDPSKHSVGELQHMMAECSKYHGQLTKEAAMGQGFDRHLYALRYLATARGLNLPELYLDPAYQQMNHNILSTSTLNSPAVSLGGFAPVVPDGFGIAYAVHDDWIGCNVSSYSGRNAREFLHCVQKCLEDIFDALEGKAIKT
# [4] = target: T4, Carnitine O-palmitoyltransferase 1, liver isoform (Homo sapiens, UniProt P50416); assay: (§2) SUPPLEMENTARY: Inhibition of Carnitine palmitoyltransferase 1, liver isoform
# T4 sequence (P50416 whole entry): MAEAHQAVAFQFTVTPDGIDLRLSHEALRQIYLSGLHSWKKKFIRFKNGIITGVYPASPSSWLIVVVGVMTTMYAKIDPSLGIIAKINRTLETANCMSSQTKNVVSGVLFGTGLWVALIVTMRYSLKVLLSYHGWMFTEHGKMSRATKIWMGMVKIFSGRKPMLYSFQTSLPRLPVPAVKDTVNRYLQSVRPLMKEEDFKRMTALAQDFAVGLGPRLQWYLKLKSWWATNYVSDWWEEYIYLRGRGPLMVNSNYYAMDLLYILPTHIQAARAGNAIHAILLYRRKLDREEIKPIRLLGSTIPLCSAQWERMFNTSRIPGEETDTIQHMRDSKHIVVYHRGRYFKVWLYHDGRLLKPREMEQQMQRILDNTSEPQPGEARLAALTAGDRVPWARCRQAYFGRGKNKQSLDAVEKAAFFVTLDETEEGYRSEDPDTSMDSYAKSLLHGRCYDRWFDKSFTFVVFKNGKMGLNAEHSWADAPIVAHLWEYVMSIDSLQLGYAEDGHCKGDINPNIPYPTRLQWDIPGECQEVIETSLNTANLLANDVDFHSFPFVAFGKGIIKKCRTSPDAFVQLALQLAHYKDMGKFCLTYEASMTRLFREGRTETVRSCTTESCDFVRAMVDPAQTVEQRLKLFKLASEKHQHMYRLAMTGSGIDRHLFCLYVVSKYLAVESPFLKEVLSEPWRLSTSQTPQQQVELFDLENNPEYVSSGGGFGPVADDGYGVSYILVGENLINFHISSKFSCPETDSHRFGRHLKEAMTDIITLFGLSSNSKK
# [5] = target: T5, Carnitine O-palmitoyltransferase 1, liver isoform (Rattus norvegicus, UniProt P32198); assay: as §2
# T5 sequence (P32198 whole entry): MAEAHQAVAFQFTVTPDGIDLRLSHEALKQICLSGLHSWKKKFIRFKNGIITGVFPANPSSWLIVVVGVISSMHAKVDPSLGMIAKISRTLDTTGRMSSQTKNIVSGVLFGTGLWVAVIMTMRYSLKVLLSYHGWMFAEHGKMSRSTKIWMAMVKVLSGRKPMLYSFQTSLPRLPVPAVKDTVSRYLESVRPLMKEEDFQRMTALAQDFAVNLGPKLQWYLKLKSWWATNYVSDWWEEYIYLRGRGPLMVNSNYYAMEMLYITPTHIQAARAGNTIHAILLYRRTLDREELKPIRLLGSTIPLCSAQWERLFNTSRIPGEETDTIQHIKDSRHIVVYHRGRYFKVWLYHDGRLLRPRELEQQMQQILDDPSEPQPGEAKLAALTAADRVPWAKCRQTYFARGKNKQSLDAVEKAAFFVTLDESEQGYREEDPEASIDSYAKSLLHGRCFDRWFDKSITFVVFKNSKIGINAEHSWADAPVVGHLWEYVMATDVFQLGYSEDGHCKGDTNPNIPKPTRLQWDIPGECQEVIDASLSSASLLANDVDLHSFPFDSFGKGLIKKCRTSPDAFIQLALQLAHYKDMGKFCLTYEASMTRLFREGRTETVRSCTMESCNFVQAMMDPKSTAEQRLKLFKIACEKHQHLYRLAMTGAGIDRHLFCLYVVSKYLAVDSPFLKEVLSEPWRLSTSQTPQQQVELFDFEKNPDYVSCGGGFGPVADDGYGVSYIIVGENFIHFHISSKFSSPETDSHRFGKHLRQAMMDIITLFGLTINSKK
# [6] = SUPPLEMENTARY: Lyophilisation Solubility Assay (LYSA); assay type: physicochemical; conditions: read-out: Kinetic_solubility
# [7] = SUPPLEMENTARY: Lipophilicity (log D) Determination by high-throughput shake-flask; assay type: physicochemical; conditions: octanol/water
# [8] = SUPPLEMENTARY: PAMPA permeability assay; assay type: physicochemical; conditions: read-out: Permeability
IC50 [1] [nM],IC50 [2] [nM],IC50 [3] [nM],IC50 [4] [nM],IC50 [5] [nM],solubility kinetic [6] [µg/mL],logD [7],Papp [8] [×10⁻⁶ cm/s],SMILES
1310,> 100000,> 100000,22.3,15.2,48,0.17,3.25,COc1ccc(Cl)cc1S(=O)(=O)N1CCc2ccc(C(=O)Nc3nc(CC(=O)O)cs3)cc21
> 100000,38200,> 100000,154,254,32,2.98,5.17,O=C(COc1ccccc1)N1CCCC[C@@H]1c1noc(-c2ccc(Cl)nc2)n1
1750,17800,27100,133,122,13,0.26,2.06,COc1ccc(Cl)cc1S(=O)(=O)N(C)c1cc(C(=O)Nc2ccc(C(=O)O)cc2)cc2c1OCO2
> 100000,> 100000,> 100000,176,235,12,3.22,4.18,O=C(COc1ccccc1)N1CCCC[C@@H]1c1noc(-c2cnc3ccccc3n2)n1
38000,> 100000,> 100000,136,135,521,-1.22,0.03,COc1ccc(Cl)cc1S(=O)(=O)N1COc2ccc(C(=O)Nc3ccn(CC(=O)O)n3)cc21
5460,326,345,77.5,56,13,2.58,2.01,COc1ccc(Cl)cc1S(=O)(=O)N1CCc2c(C)cc(C(=O)Nc3ccc(C(=O)O)cc3)cc21
> 100000,> 100000,> 100000,283,936,143,2.36,11.5,CCN(CC)C(=O)c1nc([C@H]2CCCCN2C(=O)COc2ccccc2)no1
8030,5560,15700,204,103,45,-0.37,0.06,COc1ccc(Cl)cc1S(=O)(=O)N1CCS(=O)(=O)c2ccc(C(=O)Nc3ccc(C(=O)O)c(Cl)c3)cc21
2610,578,28200,77,49.4,1,3.15,2.19,COc1ccc(Cl)cc1S(=O)(=O)N1CCOc2c(Cl)cc(C(=O)Nc3ccc(C(=O)O)cc3)cc21
> 100000,> 100000,> 100000,293,1670,27,3.04,5.95,Cc1nnsc1-c1noc([C@H]2CCCCN2C(=O)COc2ccccc2)n1
> 100000,58900,93500,105,306,312,1.09,2.77,O=C1Cc2cc(-c3noc([C@H]4CNCCN4C(=O)COc4ccccc4)n3)ccc2N1
> 100000,4770,> 100000,51.4,30.4,6,3.25,1.54,CC(=O)c1ccc(-c2nc([C@H]3CCCCN3C(=O)COc3ccccc3)no2)cc1
> 100000,> 100000,> 100000,511,555,129,2.65,5.2,Cc1cc(-c2n[nH]c([C@H]3CCCCN3C(=O)COc3ccccc3)n2)n(C)n1
1090,78500,> 100000,122,100,44,0.88,3.23,COc1ccc(Cl)cc1S(=O)(=O)N1CCOc2c(Cl)cc(C(=O)Nc3ccc(CC(=O)O)cc3)cc21
